# Results as given in ChEMBL document CHEMBL4002565, “Synthesis, biological evaluation and in silico molecular modeling of pyrrolyl benzohydrazide derivatives as enoyl ACP reductase inhibitors” (Eur J Med Chem, 2017).
# Assays:
# Escherichia coli = experiment: Antibacterial activity against Escherichia coli after 18 hrs by broth microdilution method; format: functional
# [1] = test system: Mycobacterium tuberculosis; experiment: Antitubercular activity against Mycobacterium tuberculosis H37Rv after 5 days by microplate Alamar blue assay; format: functional; settings: 120 h
# Staphylococcus aureus = experiment: Antibacterial activity against Staphylococcus aureus after 18 hrs by broth microdilution method; format: functional
# A549 = experiment: Cytotoxicity against human A549 cells by MTT assay; format: cell-based
# [2] = test system: Mycobacterium tuberculosis; experiment: Inhibition of Mycobacterium tuberculosis His6-tagged wild type InhA expressed in Escherichia coli BL21 at 50 uM using DDCoA as substrate relative to control
Structure (SMILES),MIC (Escherichia coli) [µg/mL],MIC [1] [µg/mL],MIC (Staphylococcus aureus) [µg/mL],IC50 (A549) [µM],inhibition [2] [%]
Cc1ccc(C(=O)NNC(=O)c2ccc(-n3cccc3)cc2)cc1,6.25,12.5,25,,
O=C(NNC(=O)c1ccc(-n2cccc2)cc1)c1ccc(O)cc1,12.5,12.5,25,96,29
Nc1ccc(C(=O)NNC(=O)c2ccc(-n3cccc3)cc2)cc1,12.5,12.5,25,,
O=C(NNC(=O)c1ccccc1Cl)c1ccc(-n2cccc2)cc1,6.25,3.12,12.5,,
CO[C@H]1/C=C/O[C@@]2(C)Oc3c(C)c(O)c4c(O)c(c(/C=N/N5CCN(C)CC5)c(O)c4c3C2=O)NC(=O)/C(C)=C\C=C\[C@H](C)[C@H](O)[C@@H](C)[C@@H](O)[C@@H](C)[C@H](OC(C)=O)[C@@H]1C [RIFAMPIN],,0.4,,,
Cc1cccc(C(=O)NNC(=O)c2ccc(-n3cccc3)cc2)c1,12.5,12.5,50,196,29
O=C(NNC(=O)c1cccc(Cl)c1)c1ccc(-n2cccc2)cc1,3.12,6.25,12.5,,
CCn1cc(C(=O)O)c(=O)c2cc(F)c(N3CCNCC3)cc21 [NORFLOXACIN],4,,2.02,,
O=C(NNC(=O)c1ccc(-n2cccc2)cc1)c1ccc(F)cc1,3.12,6.25,6.25,194,35
CC(=O)c1cccc(C(=O)NNC(=O)c2ccc(-n3cccc3)cc2)c1,12.5,12.5,25,79.2,31
O=C(NNC(=O)c1ccc(Cl)cc1Cl)c1ccc(-n2cccc2)cc1,3.12,3.12,12.5,,
O=C(NNC(=O)c1ccccc1Br)c1ccc(-n2cccc2)cc1,3.12,3.12,6.25,,
Oc1cc(Cl)ccc1Oc1ccc(Cl)cc1Cl,,,,,> 99
O=C(NNC(=O)c1ccc([N+](=O)[O-])cc1)c1ccc(-n2cccc2)cc1,12.5,12.5,25,96,22
CC[C@@H](CO)NCCN[C@@H](CC)CO [ETHAMBUTOL],,0.5,,,
O=C(NNC(=O)c1ccc(-n2cccc2)cc1)c1ccc(Cl)cc1,3.12,3.12,6.25,40.2,36
Cc1ccccc1C(=O)NNC(=O)c1ccc(-n2cccc2)cc1,12.5,12.5,25,196,12
COc1ccc(C(=O)NNC(=O)c2ccc(-n3cccc3)cc2)cc1,25,12.5,25,244,13
O=C(NNC(=O)c1ccc(-n2cccc2)cc1)c1ccccc1,25,50,50,248,13
Nc1cccc(C(=O)NNC(=O)c2ccc(-n3cccc3)cc2)c1,25,25,50,,
O=C(O)c1cn(C2CC2)c2cc(N3CCNCC3)c(F)cc2c1=O [CIPROFLOXACIN],,,0.15,,
O=C(NNC(=O)c1ccc(-n2cccc2)cc1)c1ccc(Br)cc1,3.12,3.12,6.25,40.2,38
O=C(NNC(=O)c1cccc([N+](=O)[O-])c1)c1ccc(-n2cccc2)cc1,25,25,50,,
Nc1ccccc1C(=O)NNC(=O)c1ccc(-n2cccc2)cc1,12.5,12.5,25,,
